From a compilation of properties of binary mixtures (doi:10.1016/j.molliq.2016.01.085)

Assay: xn = mol fraction of the nth substance listed
Conditions: 101 kPa

CCCOCCO + CCCC[n+]1ccn(C)c1.F[P-](F)(F)(F)(F)F
speed of sound [m/s]
Conditions | x1 = 0.1468 | x1 = 0.1945 | x1 = 0.3063 | x1 = 0.3953 | x1 = 0.5119 | x1 = 0.6168 | x1 = 0.702 | x1 = 0.8043 | x1 = 0.8873 | x1 = 1
298.15 K | 1431.8 | 1427.1 | 1414 | – | 1384.2 | 1366.5 | – | 1331.5 | 1316.4 | –
303.15 K | 1419 | 1414 | – | 1387.9 | 1369.3 | 1351 | 1334.9 | – | 1299.9 | 1283.7
308.15 K | 1406.6 | – | 1387.1 | 1374.1 | 1354.7 | 1335.6 | 1319.1 | – | 1283.5 | 1266.4
313.15 K | 1394.5 | 1389.3 | 1374.4 | 1360.8 | 1340.3 | 1320.3 | – | 1283.2 | 1267.2 | 1249.2
318.15 K | 1382.8 | 1377.1 | 1361.6 | 1347.3 | – | – | 1288.1 | 1267.3 | 1250.9 | 1231.9
323.15 K | – | 1365.3 | 1349.2 | 1334.2 | 1312 | – | 1272.7 | 1251.5 | 1234.9 | 1215

CCCC[n+]1ccn(C)c1.F[P-](F)(F)(F)(F)F + CCCOCCO
x2 = 0
Conditions | speed of sound [m/s]
298.15 K | 1443.8
308.15 K | 1419.8
323.15 K | 1385.6
